One compound from patent US12054485B2, “Substituted imidazoquinolines” (BIONTECH SE, priority 2017, dated 2024) can be followed below.

The assay relates to Human PBMCs. The assay is described as follows: IFN-α induction by TLR agonists in human PBMCs (Luminex). The following applies: 24 h incubation, maximum of bell-shaped curve over 0.0003-1 μM, Table 1. In kind it is cell-based. How it is done:
1) IFN-α Induction Assay—IFN-α induction by TLR Agonists in Human PBMCs
Abbreviations: BSA=bovine serum albumine; PBS=phosphate buffer pH 7.4; PE=phycoerythrin; EDC=1-ethyl-3-(3-dimethylaminopropyl)carbodiimide hydrochloride.
Materials and Devices: Bio Plex 200 Luminex device, and BioPlex Manager software; MultiScreen Filter Plates (Millipore, MABVN1250); low binding reaction vials 1.5 ml (Sarstedt, 72.706.600); Activation Buffer: 0.1M Na-dihydrogen phosphate, 0.1M Di-Na hydrogen phosphate pH 6.2; Sulfo-NHS (N-hydroxysulfosuccinimide) solution: 50 mg/ml in water (freshly prepared); EDC solution: 50 mg/ml in water (freshly prepared); Coupling Buffer: PBS; Washing Buffer: PBS+0.05% Tween20; Blocking Buffer: PBS+10 mg/ml BSA+0.05% sodium azide; Assay Buffer: PBS+10 mg/ml BSA;
Other materials and devices (pipets, reaction vessels, shaker, etc.) were standard lab equipment; water was MilliQ grade quality, buffers were sterile filtered before use.
(Pre-)Incubation of Cells:
In each well of a 96-well U-bottom plate 200,000 PBMCs were pre-incubated in medium (RPMI1640-Gibco #61870-044+10% FBS+1% L-glutamine) for 5 hours at 37° C. and 5% CO2 before the compounds of the present invention or controls were added, respectively. Upon addition of compounds of the present invention or controls, the cells are incubated for another 24 h at 37° C. and 5% CO2.
Luminex assay, Step 1: Coupling of antibody to beads: • transfer a suspension (beads are stored in buffer as provided by manufacturer) of about 5 million MicroPlex Microspheres (=beads) into a low binding reaction vial • centrifuge bead suspension for 1 min at 10,000 g, discard supernatant and resuspend pellet in 160 μl Activation Buffer, repeat once • add 20 μl Sulfo-NHS solution and 20 μl EDC solution, vortex • incubate for 20 min in the absence of light • centrifuge bead suspension for 1 min at 10,000 g, discard supernatant and resuspend pellet in 500 μl Coupling Buffer, repeat once • add capture antibody (CaptureAK eBioscience #BMS160, 5 μg per 1 Mio beads) • incubate 2 h at RT in the absence of light while swaying • centrifuge bead suspension for 1 min at 10,000 g, discard supernatant and resuspend pellet in 500 μl Washing Buffer, repeat once • centrifuge bead suspension for 1 min at I0,000 g, discard supernatant and resuspend pellet in 100 μl Blocking Buffer
Luminex assay, Step 2: Measurement • add 100 μlAssay Buffer into each filter plate well (seal any unused wells with adhesive tape), then remove buffer • add about 2,000 beads per well per analyte (per analyte, a different bead type with distinct fluorescence color is used), suspended in […] of Assay Buffer • remove buffer and wash twice with 100 μl Washing Buffer per well • per well, add 50 μl sample solution from the (pre-)incubation step (cell supernatant), or Standard (IFN-α standard eBioscience #BMS216MST—concentration gradient, highest standard concentration 2500 pg/ml) or Assay Buffer (as blanks) • shake plate • incubate plate for 2 h at RT in the absence of light, while swaying the plate • wash three times with 100 μl Washing Buffer per well • add 25 μl antibody detection mix (DetectionAK eBioscience #BMS1016BT diluted 1:1000) in Assay Buffer per well, then vortex plate • incubate plate for 1 h at RT in the absence of light, while swaying the plate • wash three times with 100 μl Washing Buffer per well • add 50 μl Streptavidin/PE (diluted 1:200 in Assay Buffer) per well, then vortex plate • incubate plate for 10 min at RT in the absence of light, while swaying the plate • wash three times with 100 μl Washing Buffer per well • add 100 μl Assay Buffer per well, then vortex plate • start Luminex measurement according to manufacturer's instructions, measuring at least 50 beads per well per analyte
The compounds were tested at 8 different concentrations (1 μM, 0.3 μM, 0.1 μM, 0.03 μM, 0.01 μM 0.003 μM, 0.001 μM, 0.0003 μM) using a half-logarithmic dilution. […]

On to `CCc1nc2c(N)nc3ccccc3c2n1CCCCN(C(C)=O)C1CCOCC1` [Example 1, N-(4-(4-Amino-2-ethyl-1H-imidazo[4,5-c]quinolin-1-yl)butyl)-N-(tetrahydro-2H-pyran-4-yl)acetamide], for which the “Maximum IFN-α release” value was 1750 pg/mL.
